Measured values: ChEMBL document CHEMBL1201862, “PubChem BioAssay data set” (2004)
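Grown in 96-well plates, cells were treated for 48 hours with each compound at five concentrations. Insufficient inhibition: endpoint recorded as highest concentration tested. GI50: concentration for 50% inhibition of growth.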 Active and inactive are the calls of the source. Cut-off read from the data, not from the text of the source: active = GI50 up to about 1.1 µM and inactive = higher.

How the values were obtained:
Test in all cases: inhibition of tumour cell growth, NCI panel, 48 h
RPMI-8226 = test system: RPMI-8226
SNB-75 = test system: SNB-75
UACC-62 = test system: UACC-62
OVCAR-3 = test system: OVCAR-3
U-251 = test system: U-251
HCT-116 = test system: HCT-116
SK-MEL-28 = test system: SK-MEL-28
HT-29 = test system: HT-29
SK-MEL-5 = test system: SK-MEL-5
OVCAR-8 = test system: OVCAR-8
PC-3 = test system: PC-3
IGROV-1 = test system: IGROV-1
Hs-578T = test system: Hs-578T
HL-60 = test system: HL-60
NCI-H23 = test system: NCI-H23
OVCAR-5 = test system: OVCAR-5
K562 = test system: K562
MDA-MB-231 = test system: MDA-MB-231
NCI-H226 = test system: NCI-H226

Measured: GI50

Cc1cccc(/C(Br)=C2/OC(=O)c3ccccc32)c1
inactive: RPMI-8226 > 100 µM | SNB-75 > 100 µM | UACC-62 > 100 µM | OVCAR-3 > 100 µM | U-251 > 100 µM | HCT-116 > 100 µM | SK-MEL-28 > 100 µM | HT-29 > 100 µM | SK-MEL-5 > 100 µM | OVCAR-8 > 100 µM | PC-3 > 100 µM | IGROV-1 > 100 µM | Hs-578T > 100 µM | HL-60 > 10 µM | NCI-H23 > 100 µM | OVCAR-5 > 100 µM

O=C(COc1ccc(OCC(=O)N2C(=O)CC(=O)N(c3ccc(Cl)cc3)C2=S)cc1)N1C(=O)CC(=O)N(c2ccc(Cl)cc2)C1=S
inactive: RPMI-8226 49.5 µM | SNB-75 72.9 µM | UACC-62 16.8 µM | U-251 33.3 µM | HCT-116 10.1 µM | K562 19.4 µM | SK-MEL-28 50.4 µM | HT-29 24.6 µM | SK-MEL-5 29.7 µM | PC-3 29.3 µM | MDA-MB-231 27.9 µM | IGROV-1 10.8 µM | NCI-H226 26.6 µM | NCI-H23 25.8 µM | OVCAR-5 12.9 µM

C/C=C\C(CC(=O)NCCC1CN(C(=O)c2ccccc2)c2ccccc21)CC(=O)OC (centres undefined)
inactive: RPMI-8226 > 100 µM | SNB-75 > 100 µM | UACC-62 > 100 µM | OVCAR-3 > 100 µM | U-251 > 100 µM | HCT-116 > 100 µM | K562 > 100 µM | SK-MEL-28 > 100 µM | HT-29 > 100 µM | SK-MEL-5 97.3 µM | OVCAR-8 > 100 µM | PC-3 > 100 µM | MDA-MB-231 > 100 µM | IGROV-1 > 100 µM | Hs-578T > 100 µM | NCI-H23 > 100 µM | OVCAR-5 > 100 µM

c1ccc(Cc2nc(Cc3n[nH]c(Cc4ccccc4)n3)n[nH]2)cc1
inactive: RPMI-8226 > 100 µM | SNB-75 > 100 µM | UACC-62 > 100 µM | OVCAR-3 > 100 µM | U-251 > 100 µM | HCT-116 > 100 µM | K562 > 100 µM | SK-MEL-28 > 100 µM | HT-29 > 100 µM | SK-MEL-5 > 100 µM | OVCAR-8 > 100 µM | PC-3 > 100 µM | MDA-MB-231 > 100 µM | IGROV-1 > 100 µM | Hs-578T 11.8 µM | NCI-H23 > 100 µM | OVCAR-5 > 100 µM

COC(=O)Cc1c(C(=O)CC(C)(C)n2cnc(CCN3C(=O)CCC3=O)c2)[nH]c2ccccc12
inactive: SNB-75 27 µM | UACC-62 > 100 µM | OVCAR-3 > 100 µM | U-251 > 100 µM | HCT-116 > 100 µM | K562 > 100 µM | SK-MEL-28 > 100 µM | HT-29 > 100 µM | SK-MEL-5 > 100 µM | OVCAR-8 > 100 µM | PC-3 > 100 µM | MDA-MB-231 > 100 µM | IGROV-1 89.3 µM | Hs-578T > 100 µM | NCI-H226 > 100 µM | NCI-H23 > 100 µM | OVCAR-5 > 100 µM

Cc1ccc(Cl)c(NC(=O)C(=O)C(C(=O)c2ccncc2)C2OC(=O)c3ccccc32)c1 (centres undefined)
inactive: RPMI-8226 > 100 µM | SNB-75 > 100 µM | UACC-62 > 100 µM | U-251 > 100 µM | HCT-116 > 100 µM | K562 > 100 µM | SK-MEL-28 > 100 µM | HT-29 > 100 µM | SK-MEL-5 > 100 µM | OVCAR-8 > 100 µM | IGROV-1 > 100 µM | HL-60 > 100 µM | NCI-H226 > 100 µM | NCI-H23 > 100 µM

COC(=O)C1(O)c2ccccc2N=C2C1CCN2C (centres undefined)
inactive: RPMI-8226 > 100 µM | SNB-75 26.8 µM | UACC-62 > 100 µM | U-251 > 100 µM | HCT-116 > 100 µM | K562 > 100 µM | SK-MEL-28 > 100 µM | HT-29 > 100 µM | SK-MEL-5 > 100 µM | OVCAR-8 > 100 µM | IGROV-1 > 100 µM | HL-60 > 100 µM | NCI-H23 > 100 µM | OVCAR-5 > 100 µM

COc1cc2c(cc1OC)-c1c(cc(OC)c(OC)c1OC)C2=O
inactive: RPMI-8226 > 100 µM | SNB-75 18.2 µM | UACC-62 > 100 µM | OVCAR-3 > 100 µM | U-251 > 100 µM | HCT-116 > 100 µM | K562 > 100 µM | SK-MEL-28 > 100 µM | HT-29 > 100 µM | SK-MEL-5 77.1 µM | OVCAR-8 > 100 µM | IGROV-1 > 100 µM | HL-60 98.6 µM | NCI-H226 > 100 µM | NCI-H23 > 100 µM | OVCAR-5 > 100 µM

Cn1nc(Cc2ccc(Cl)cc2)n(N)c1=O
inactive: RPMI-8226 > 100 µM | SNB-75 > 100 µM | UACC-62 39.2 µM | U-251 > 100 µM | HCT-116 > 100 µM | K562 > 100 µM | SK-MEL-28 > 100 µM | HT-29 > 100 µM | SK-MEL-5 > 100 µM | OVCAR-8 > 100 µM | PC-3 > 100 µM | MDA-MB-231 > 100 µM | IGROV-1 > 100 µM | NCI-H226 > 100 µM | NCI-H23 > 100 µM | OVCAR-5 > 100 µM

Cc1cc(C(=O)N2CCN(Cc3ccccc3)CC2)c(C)o1
inactive: RPMI-8226 > 100 µM | SNB-75 > 100 µM | UACC-62 > 100 µM | OVCAR-3 > 100 µM | U-251 > 100 µM | HCT-116 > 100 µM | K562 > 100 µM | SK-MEL-28 > 100 µM | HT-29 > 100 µM | SK-MEL-5 > 100 µM | OVCAR-8 > 100 µM | IGROV-1 > 100 µM | HL-60 25.4 µM | NCI-H23 > 100 µM | OVCAR-5 > 100 µM

O=c1c2cc(-c3ccccc3)cnc2sn1-c1ccc([N+](=O)[O-])cc1
inactive: RPMI-8226 23.4 µM | SNB-75 25.1 µM | UACC-62 17.7 µM | OVCAR-3 16.9 µM | U-251 21.6 µM | HCT-116 21.3 µM | K562 35.8 µM | SK-MEL-28 58.1 µM | HT-29 68.2 µM | OVCAR-8 33.2 µM | PC-3 33.7 µM | MDA-MB-231 41.3 µM | IGROV-1 29.6 µM | HL-60 37.8 µM | NCI-H226 44.5 µM | NCI-H23 15.1 µM | OVCAR-5 > 100 µM

CC1(C)COC(C2(C)C(=O)C=C(c3ccccc3)c3ccccc32)=N1 (centres undefined)
inactive: RPMI-8226 34.9 µM | SNB-75 33.4 µM | UACC-62 54.3 µM | OVCAR-3 30.4 µM | U-251 59.4 µM | HCT-116 44.1 µM | K562 33.3 µM | SK-MEL-28 42.9 µM | HT-29 30.5 µM | SK-MEL-5 > 100 µM | OVCAR-8 46.8 µM | IGROV-1 47.5 µM | HL-60 27 µM | NCI-H226 52.1 µM | NCI-H23 47.1 µM
